Data from EP1070068B2, “GRANULATIMIDE DERIVATIVES FOR USE IN CANCER TREATMENT” (THE UNIVERSITY OF BRITISH COLUMBIA, priority 1998, dated 1999).
Where two headings read alike, the source gives them in different places.

What was measured:
[1] = tested on: MCF-7 mp53 cells; assay: G2 checkpoint inhibition assay (TG-3 ELISA of mitotic cells after γ-irradiation, with nocodazole); format: cell-based; settings: concentration of 0.1-30 µM
[2] = target: CDK1 (Homo sapiens, UniProt P06493); assay: Protein kinase inhibition assay (γ-32P ATP); format: biochemical; settings: room temperature, 15 minutes
Sequence of CDK1 (P06493 whole entry, species assumed): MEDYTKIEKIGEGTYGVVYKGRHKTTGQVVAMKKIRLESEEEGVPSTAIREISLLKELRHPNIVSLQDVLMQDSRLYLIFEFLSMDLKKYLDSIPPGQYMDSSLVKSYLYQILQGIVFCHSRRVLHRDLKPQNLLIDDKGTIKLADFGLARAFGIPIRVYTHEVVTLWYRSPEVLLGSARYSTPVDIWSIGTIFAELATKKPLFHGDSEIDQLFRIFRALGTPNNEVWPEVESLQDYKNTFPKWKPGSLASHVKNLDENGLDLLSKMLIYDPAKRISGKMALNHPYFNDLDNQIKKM
Sequence of CDK1 (P14635 whole entry partner, species assumed): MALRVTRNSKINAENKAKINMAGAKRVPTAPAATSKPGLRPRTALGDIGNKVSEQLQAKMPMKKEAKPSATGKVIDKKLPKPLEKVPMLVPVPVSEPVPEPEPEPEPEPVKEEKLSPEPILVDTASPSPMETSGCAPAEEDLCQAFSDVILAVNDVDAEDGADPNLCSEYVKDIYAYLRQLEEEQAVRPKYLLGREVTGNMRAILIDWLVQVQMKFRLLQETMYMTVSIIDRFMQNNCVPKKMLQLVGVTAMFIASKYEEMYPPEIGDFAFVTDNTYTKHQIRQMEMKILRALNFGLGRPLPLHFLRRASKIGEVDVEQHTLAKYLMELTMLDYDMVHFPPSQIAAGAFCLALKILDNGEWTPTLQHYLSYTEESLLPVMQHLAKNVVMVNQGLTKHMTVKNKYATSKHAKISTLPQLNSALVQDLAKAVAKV
Experimental: (§1) 100% DMSO was used as a negative control.
(§2) Kinase reactions are performed at room temperature. The reaction mixture contains diluted test compound, the protein kinase, substrate and γ-^32P ATP. The mixture is incubated for 15 minutes, and the reaction mix spotted, and counted.

[3] = target: T1, ILK1 (Homo sapiens, UniProt Q13418); assay: Protein kinase inhibition assay (γ-32P ATP, peptide substrate); format: biochemical; settings: room temperature, 15 minutes
T1 sequence (Q13418 1-452): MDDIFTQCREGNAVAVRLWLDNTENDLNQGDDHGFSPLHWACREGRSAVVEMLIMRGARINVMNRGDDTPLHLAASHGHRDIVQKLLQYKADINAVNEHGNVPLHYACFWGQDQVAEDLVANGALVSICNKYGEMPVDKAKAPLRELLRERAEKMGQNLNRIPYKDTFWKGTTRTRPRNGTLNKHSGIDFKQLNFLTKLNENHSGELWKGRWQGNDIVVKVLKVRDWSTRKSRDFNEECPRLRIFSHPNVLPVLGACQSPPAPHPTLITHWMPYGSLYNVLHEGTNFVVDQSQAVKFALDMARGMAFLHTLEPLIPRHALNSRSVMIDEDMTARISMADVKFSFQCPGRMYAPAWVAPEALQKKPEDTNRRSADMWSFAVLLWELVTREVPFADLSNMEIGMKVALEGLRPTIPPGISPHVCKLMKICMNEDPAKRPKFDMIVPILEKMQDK
Experimental: (§3) The GSK3β peptide substrate used was […] (PO4H2)EDEE-amide. The ILK1 substrate is […]-amide.
as §1, §2

[4] = target: GSK3b (Homo sapiens, UniProt P49841); assay: as above; format: biochemical; settings: room temperature, 15 minutes
Sequence of GSK3b (P49841 whole entry, species assumed): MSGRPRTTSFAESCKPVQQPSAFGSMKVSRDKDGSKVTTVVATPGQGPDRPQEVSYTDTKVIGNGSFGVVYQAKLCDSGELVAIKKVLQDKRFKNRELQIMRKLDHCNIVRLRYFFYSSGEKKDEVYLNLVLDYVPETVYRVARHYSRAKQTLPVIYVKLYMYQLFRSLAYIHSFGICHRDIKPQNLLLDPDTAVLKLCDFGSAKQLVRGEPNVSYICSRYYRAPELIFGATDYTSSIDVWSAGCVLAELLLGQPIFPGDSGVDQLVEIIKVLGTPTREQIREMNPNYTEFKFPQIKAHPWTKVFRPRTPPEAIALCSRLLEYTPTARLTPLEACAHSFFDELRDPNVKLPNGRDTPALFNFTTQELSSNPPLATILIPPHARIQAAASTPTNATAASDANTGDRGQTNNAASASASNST
Experimental: as §3, §1, §2

[5] = Solubility in organic solvents; format: physicochemical
[6] = tested on: MCF-7 mp53 cells; assay: G2 checkpoint inhibition assay (TG-3 ELISA of mitotic cells after γ-irradiation, with nocodazole); format: cell-based; settings: for IC50: Homo sapiens
Experimental: G2 Checkpoint Inhibitor Assay: The G2 checkpoint inhibitor assay described herein involves treating cells, e. g. cells associated with a hyperproliferative disorder, including cancer cells, with a DNA damaging agent under conditions whereby arrest of the cells at G2 will be induced. A sample to be tested for G2 checkpoint inhibition activity and an agent which arrests cells in mitosis are applied to the cells, following which it is determined whether the G2 checkpoint is overcome and the cells enter mitosis. Release of the cells from arrest at G2 or prevention of arrest at G2, such that the cells proceed to mitosis, is the indicator of G2 checkpoint inhibition activity.
MCF-7 mp53 cells (mutant for p53) were cultured as monolayers in DMEM supplemented with 10% fetal bovine serum, 2 mM L-glutamine, 50 units/ml penicillin, 50 µg/ml streptomycin, 1 mM sodium pyruvate, MEM non-essential amino acids, 1 µg/ml bovine insulin, 1 µg/ml hydrocortisone, 1 ng/ml human epidermal growth factor, and 1 ng/ml β-estradiol at 37°C in humidified 5% CO2. The cells were seeded at 10,000 cells per well of 96-well polystyrene tissue culture plates (Falcon) in 100 µl medium. The cells were allowed to grow for 24 hours and then were irradiated with 6.5 Gy using a ^60Co source (Gammacell 200™, Atomic Energy Commission of Canada) delivering γ-rays at a dose rate of 1.4 Gy/min.
Extracts from marine organisms at about 10µg/ml (from 1000-fold stocks in DMSO) and 100 ng/ml nocodazole (Sigma, from a 1000-fold stock in DMSO) were added 16 hours after irradiation and the cells were incubated for a further 8 hours.
After drug treatment, the cell culture medium was removed and the cells were lysed by adding 100 µl of ice-cold lysis buffer (1 mM EGTA pH 7.4, 0.2 mM PMSF) and pipeting up-and-down 10 times. The cell lysates were transferred to 96-well PolySorp™ plates (Nunc) and dried completely by blowing warm air at about 37°C with a hair dryer positioned about 3 feet above plates. […] This was removed and replaced with 100 µl antibody buffer containing 0.1-0.15 µg/ml TG-3 monoclonal antibody and horseradish peroxidase-labelled goat anti-mouse IgM (Southern Biotechnology Associates) at a dilution of 1/500.
After overnight incubation at 4°C, the antibody solution was removed and the wells were rinsed 3 times with 200 µl 10 mM Tris HCl pH 7.4, 0.02% Tween 20™.

[7] = in vitro; settings: human
[8] = tested on: MCF-7 mp53 cells
[9] = tested on: MCF-7 cells; assay: Cell survival, soluble tetrazolium salt assay with γ-irradiation, p53+ cells; format: cell-based; settings: MCF-7 cells (Figure 1C)
[10] = tested on: p53- A549 human lung adenocarcinoma cells; settings: cited from earlier work
[11] = tested on: p53-MCF-7 cells; settings: cited from earlier work
[12] = MCF7, Table 2, read-out: IC50 G2 checkpoint
[13] = MCF7, light or radiation study, MCF-7 mp53 cells irradiated with 6.5 Gy, read-out: half-maximal G2 checkpoint inhibition (IC50)

Row | IC50 [2] [µM] | IC50 [3] [µM] | IC50 [4] [µM] | IC50 [6, 12] [µM] | IC50 [6, 13] [µM] | SMILES | also measured
1 | – | – | – | – | – | O=C1NC(=O)C(c2c[nH]c3ccccc23)=C1c1cnc[nH]1 [Didemnimide A] | G2 checkpoint inhibition activity [1]: no activity
2 | 2 | > 50 | 2 | 1.3 | – | O=C1NC(=O)c2c1c1[nH]cnc1c1[nH]c3ccccc3c21 [Granulatimide] | solubility ([5]; DMF or DMSO): soluble; solubility ([5]; most common organic solvents including ethanol and methanol): very insoluble; IC50 ([6]; MCF7, Figure 2, read-out: G2 checkpoint inhibitor IC50): 1.3 µM
3 | – | – | – | – | – | CC(=O)CCCCn1c(=O)c2c(ncn2C)n(C)c1=O [Pentoxifylline] | enhancement of radiation induced killing [10]: 5 fold; enhancement of cisplatin induced killing [11]: 30 fold
4 | – | – | – | – | – | Cn1c(=O)c2c(ncn2C)n(C)c1=O [caffeine, reference compound] | IC50 ([6]; MCF7, comparison compound, read-out: IC50 for G2 checkpoint inhibition): 1000 µM; absorbance readings at 405 nm ([6]; positive control, 2 mM): about 1.0
5 | > 50 | > 50 | 25 | > 100 | > 100 | O=C1NC(=O)c2c1c1c3ccccc3[nH]c1c1nccn21 [compound 40] | –
6 | 0.5 | 15 | 0.1 | 1 | 1 | O=C1NC(=O)c2c1c1c3ccccc3[nH]c1c1cncn21 [compound 50] | –
7 | 17 | > 50 | 5 | 6 | 2 | O=C1NC(=O)c2c1c1c3ccccc3[nH]c1n1ccnc21 [compound 60] | –

Row | SMILES | IC50 [2] [µM] | IC50 [3] [µM] | IC50 [4] [µM] | IC50 [6, 12] [µM] | IC50 [6, 13] [µM] | also measured
8 | O=C1NC(=O)c2c1c1c3ccccc3[nH]c1n1cncc21 [Isogranulatimide] | – | > 50 | 0.5 | 1.8 | 1.8 ± 0.2 | IC50 at 16 h [7]: 40 ± 4 µM; reduction of the IC50 for cytotoxicity when cells were irradiated [8]: 5 fold; synergy with γ-irradiation in killing p53- cells ([8]; 2, 4 or 6 Gy, 16 hours for isogranulatimide): acted synergistically; synergy with irradiation in killing p53+ cells [9]: does not kill p53+ cells synergistically
